According to US20250145633A1, “SUBSTITUTED FURANOPYRIMIDINE COMPOUNDS AS PDE1 INHIBITORS” (Dart NeuroScience, LLC, priority 2017, published 2025):
Where a name gives a salt, the structure may show the parent alone.

Target: human PDE1B enzyme (Homo sapiens (Human), UniProt Q01064)
Test: IMAP TR-FRET PDE1B enzymatic assay
Format: biochemical
Conditions: negative log of half-maximal molar inhibitory concentration, 200 nM FAM-cAMP, values given as bins; for IC50: read-out: PDE1b (pIC50) (converted)
Protocol: PDE1B inhibition was determined by an IMAP TR-FRET assay. The IMAP TR-FRET PDE assay was optimized for concentration of enzyme, Calmodulin, cAMP or cGMP substrate, DMSO tolerance, and incubation time.
Into each well of a solid white 1536 well plate (Corning) was dispensed 250 pg full-length recombinant NH-terminal GST tagged human PDE1B enzyme (BPS Bioscience Cat #60011, San Diego, CA) in 2.5 μL IMAP BSA reaction buffer (Molecular Devices, Sunnyvale, CA) containing 10 U/ml Calmodulin and 2.5 mM CaCl2) (Sigma Aldrich.) After a brief centrifugation, 30 nL of compound was added by transfer from 1 mM stock in DMSO using a Kalypsys 1536 Pintool. Plates were incubated for 5 minutes at room temperature before dispensing 1.5 μL of 533 nM 5-carboxy fluorescein (FAM)-labeled cAMP (Molecular Devices, Sunnyvale, CA) for a final concentration of 200 nM. After a brief centrifugation, the plates were incubated for 30 minutes at room temperature. The assay was terminated by adding 5 μL IMAP binding reagent/Tb complex (Molecular Devices, Sunnyvale, CA) to each well.
Plates were incubated for 1 hour at room temperature and were read on a Viewlux multimode plate reader (Perkin Elmer). The instrument was set to excite using the DUG11 filter and measure using 490/10 nm and 520/10 nm filters. Ratios of acceptor and donor were then calculated.
For IC50 calculations, the values of % efficacy versus a series of compound concentrations were then plotted using non-linear regression analysis of sigmoidal dose-response curves generated with the equation Y=[B+(T−B)]/[1+10((Log EC50−X)×Hill Slope)], where Y=percent activity, B=minimum percent efficacy, T=maximum percent efficacy, X=logarithm of compound and Hill Slope=slope factor or Hill coefficient. The IC50 value was determined by the concentration causing a half-maximal percent efficacy.

SMILES	IC50	PDE1b (pIC50)
Cc1oc2ncnc(NC3(C)CC3)c2c1C(=O)N1CCc2c(Cl)ncnc2C1 [Example 6, 5-{4-chloro-5H,6H,7H,8H-pyrido[3,4-d]pyrimidine-7-carbonyl}-6-methyl-N-(1-methylcyclopropyl)furo[2,3-d]pyrimidin-4-amine]	10 to 100 nM	–
Cc1oc2ncnc(NC3(C)CC3)c2c1C(=O)N1CCc2c(ncnc2NCCF)C1 [Example 7, 5-{4-[(2-Fluoroethyl)amino]-5H,6H,7H,8H-pyrido[3,4-d]pyrimidine-7-carbonyl}-6-methyl-N-(1-methylcyclopropyl)furo[2,3-d]pyrimidin-4-amine trifluoroacetate]	10 to 100 nM	–
Cc1oc2ncnc(NC3(C)CC3)c2c1C(=O)NCc1cnc(Cl)cn1 [Example 8, N-((5-Chloropyrazin-2-yl)methyl)-6-methyl-4-((1-methylcyclopropyl)amino)furo[2,3-d]pyrimidine-5-carboxamide]	10 to 100 nM	–
Cc1oc2ncnc(NC3(C)CC3)c2c1C(=O)NCc1cnc(F)cn1 [Example 9, N-((5-Fluoropyrazin-2-yl)methyl)-6-methyl-4-((1-methylcyclopropyl)amino)furo[2,3-d]pyrimidine-5-carboxamide]	10 to 100 nM	–
Cc1oc2ncnc(NC3(C)CC3)c2c1C(=O)NCc1ccc(O)cn1 [Example 10, N-[(5-Hydroxypyridin-2-yl)methyl]-6-methyl-4-[(1-methylcyclopropyl)amino]furo[2,3-d]pyrimidin-5-carboxamide]	10 to 100 nM	–
Cc1oc2ncnc(NC3(C)CC3)c2c1C(=O)NCc1ccc(OCF)cn1 [Example 11, N-((5-(Fluoromethoxy)pyridin-2-yl)methyl)-6-methyl-4-((1-methylcyclopropyl)amino)furo[2,3-d]pyrimidin-5-carboxamide]	–	>8
Cc1oc2ncnc(NC3(C)CC3)c2c1C(=O)N1CC=C(c2cnc(C#N)c(F)c2)CC1 [Example 12, 3-Fluoro-5-(1-{6-methyl-4-[(1-methylcyclopropyl)amino]furo[2,3-d]pyrimidine-5-carbonyl}-1,2,3,6-tetrahydropyridin-4-yl)pyridine-2-carbonitrile]	–	>8
COc1ncc(C2=CCN(C(=O)c3c(C)oc4ncnc(NC5(C)CC5)c34)CC2)cc1F [Example 13, 5-[4-(5-Fluoro-6-methoxypyridin-3-yl)-1,2,3,6-tetrahydropyridine-1-carbonyl]-6-methyl-N-(1-methylcyclopropyl)furo[2,3-d]pyrimidin-4-amine]	–	>8
COc1ncc(C2CCN(C(=O)c3c(C)oc4ncnc(NC5(C)CC5)c34)CC2)cc1F [Example 14, 5-[4-(5-Fluoro-6-methoxypyridin-3-yl)piperidine-1-carbonyl]-6-methyl-N-(1-methylcyclopropyl)furo[2,3-d]pyrimidin-4-amine]	–	>8
Cc1oc2ncnc(NC3(C)CC3)c2c1C(=O)N1CC=C(c2ncc(F)cn2)CC1 [Example 15, 5-[4-(5-Fluoropyrimidin-2-yl)-1,2,3,6-tetrahydropyridine-1-carbonyl]-6-methyl-N-(1-methylcyclopropyl)furo[2,3-d]pyrimidin-4-amine]	10 to 100 nM	–
Cc1oc2ncnc(NC3(C)CC3)c2c1C(=O)N1CCc2c(ncn(CF)c2=O)C1 [Example 16, 3-(Fluoromethyl)-7-{6-methyl-4-[(1-methylcyclopropyl)amino]furo[2,3-d]pyrimidine-5-carbonyl}-3H,4H,5H,6H,7H,8H-pyrido[3,4-d]pyrimidin-4-one]	10 to 100 nM	–
Cc1oc2ncnc(NC3(C)CC3)c2c1C(=O)N1CCc2c(ncnc2OCF)C1 [Example 17, 5-[4-(fluoromethoxy)-5H,6H,7H,8H-pyrido[3,4-d]pyrimidine-7-carbonyl]-6-methyl-N-(1-methylcyclopropyl)furo[2,3-d]pyrimidin-4-amine]	10 to 100 nM	–
Cc1oc2ncnc(NC3(C)CC3)c2c1C(=O)N1CCc2c(ncnc2N2CC[C@@H](F)C2)C1 [Example 18, 5-{4-[(3R)-3-Fluoropyrrolidin-1-yl]-5H,6H,7H,8H-pyrido[3,4-d]pyrimidine-7-carbonyl}-6-methyl-N-(1-methylcyclopropyl)furo[2,3-d]pyrimidin-4-amine]	10 to 100 nM	–
Cc1oc2ncnc(NC3(C)CC3)c2c1C(=O)N1CCc2c(O)ccnc2C1 [Example 19, 7-{6-methyl-4-[(1-methylcyclopropyl)amino]furo[2,3-d]pyrimidine-5-carbonyl}-5,6,7,8-tetrahydro-1,7-naphthyridin-4-ol]	100 to 1000 nM	–
Cc1oc2ncnc(NC3(C)CC3)c2c1C(=O)N1CCc2c(OCCF)ccnc2C1 [Example 20, 5-[4-(2-Fluoroethoxy)-5,6,7,8-tetrahydro-1,7-naphthyridine-7-carbonyl]-6-methyl-N-(1-methylcyclopropyl)furo[2,3-d]pyrimidin-4-amine trifluoroacetate]	–	>8
Cc1oc2ncnc(NC3(C)CC3)c2c1C(=O)N1CCC(c2ccnc(F)c2)C1 (stereo not shown) [Example 21, 5-[3-(2-Fluoropyridin-4-yl)pyrrolidine-1-carbonyl]-6-methyl-N-(1-methylcyclopropyl)furo[2,3-d]pyrimidin-4-amine]	–	>8
Cc1oc2ncnc(NC3(C)CC3)c2c1C(=O)N1CCc2c(nc(C(C)C)[nH]c2=O)C1 [Example 22, 2-Isopropyl-7-(6-methyl-4-((1-methylcyclopropyl)amino)furo[2,3-d]pyrimidine-5-carbonyl)-5,6,7,8-tetrahydropyrido[3,4-d]pyrimidin-4(3H)-one]	10 to 100 nM	–
CCc1ncnc2c1CCN(C(=O)c1c(C)oc3ncnc(NC4(C)CC4)c13)C2 [Example 23, 5-{4-Ethyl-5H,6H,7H,8H-pyrido[3,4-d]pyrimidine-7-carbonyl}-6-methyl-N-(1-methylcyclopropyl)furo[2,3-d]pyrimidin-4-amine]	10 to 100 nM	–
Cc1oc2ncnc(NC3(C)CC3)c2c1C(=O)N1CCc2c(C#N)ncnc2C1 [Example 24, 7-(6-Methyl-4-((1-methylcyclopropyl)amino)furo[2,3-d]pyrimidine-5-carbonyl)-5,6,7,8-tetrahydropyrido[3,4-d]pyrimidine-4-carbonitrile]	100 to 1000 nM	–
CCOc1ncnc2c1CCN(C(=O)c1c(C)oc3ncnc(NC4(C)CC4)c13)C2 [Example 25, 5-{4-Ethoxy-5H,6H,7H,8H-pyrido[3,4-d]pyrimidine-7-carbonyl}-6-methyl-N-(1-methylcyclopropyl)furo[2,3-d]pyrimidin-4-amine]	–	>8
Cc1oc2ncnc(NC3(C)CC3)c2c1C(=O)N1CCC(c2nccc(NCCF)n2)CC1 [Example 26, (4-(4-((2-Fluoroethyl)amino)pyrimidin-2-yl)piperidin-1-yl)(6-methyl-4-((1-methylcyclopropyl)amino)furo[2,3-d]pyrimidin-5-yl)methanone]	–	>8
COc1nc(C(C)C)nc2c1CCN(C(=O)c1c(C)oc3ncnc(NC4(C)CC4)c13)C2 [Example 27, 5-[4-Methoxy-2-(propan-2-yl)-5H,6H,7H,8H-pyrido[3,4-d]pyrimidine-7-carbonyl]-6-methyl-N-(1-methylcyclopropyl)furo[2,3-d]pyrimidin-4-amine]	–	>8
COc1cc(CN(C(=O)c2c(C)oc3ncnc(NC4(C)CC4)c23)C2CC2)ncn1 [Example 28, N-Cyclopropyl-N-[(6-methoxypyrimidin-4-yl)methyl]-6-methyl-4-[(1-methylcyclopropyl)amino]furo[2,3-d]pyrimidine-5-carboxamide]	10 to 100 nM	–
CCc1nc(C2CC2)n2c1CN(C(=O)c1c(C)oc3ncnc(NC4(C)CC4)c13)CC2 [Example 29, 5-{3-Cyclopropyl-1-ethyl-5H,6H,7H,8H-imidazo[1,5-a]pyrazine-7-carbonyl}-6-methyl-N-(1-methylcyclopropyl)furo[2,3-d]pyrimidin-4-amine]	100 to 1000 nM	–
Cc1oc2ncnc(NC3(C)CC3)c2c1C(=O)N1C[C@@H]2C(c3ccccn3)[C@@H]2C1 (stereo partly drawn) [Example 30, 6-methyl-N-(1-methylcyclopropyl)-5-[(1R,5S,6S)-6-(pyridin-2-yl)-3-azabicyclo[3.1.0]hexane-3-carbonyl]furo[2,3-d]pyrimidin-4-amine]	10 to 100 nM	–
Cc1oc2ncnc(NC3(C)CC3)c2c1C(=O)N1CC(c2ccc(F)cn2)C1 [Example 31, 5-[3-(5-Fluoropyridin-2-yl)azetidine-1-carbonyl]-6-methyl-N-(1-methylcyclopropyl)furo[2,3-d]pyrimidin-4-amine]	10 to 100 nM	–
Cc1oc2ncnc(NC3(C)CC3)c2c1C(=O)N1CC(c2ccc(C#N)cc2)C1 [Example 32, 4-(1-{6-Methyl-4-[(1-methylcyclopropyl)amino]furo[2,3-d]pyrimidine-5-carbonyl}azetidin-3-yl)benzonitrile]	10 to 100 nM	–
Cc1oc2ncnc(NC3(C)CC3)c2c1C(=O)N1CC(c2nccs2)C1 [Example 33, 6-Methyl-N-(1-methylcyclopropyl)-5-[3-(1,3-thiazol-2-yl)azetidine-1-carbonyl]furo[2,3-d]pyrimidin-4-amine]	10 to 100 nM	–
